What was measured:
male Wistar rats = conditions: sodium nitrite, as determined in rats; cited from earlier work
in vivo = conditions: rat, po
Experimental: The LD50 test was conducted using male Wistar rats after 24 hours' fasting weighing 150 g, each 10 rats as a group.

Structure (SMILES)	LD50 (male Wistar rats) [mg/kg]	LD50 (in vivo) [mg/kg]
O=NO [Sodium nitrite]	85	–
Cc1cc(O)c2nncn2n1	–	~3750

Source: US3940248A, “Method for inhibiting corrosion of metal” (Otsuka Kagaku Yakuhin Kabushiki Kaisha, priority 1972, dated 1976)
